Reference: US11357737B2, “Chitosan nanofibers containing bioactive compounds” (FUNDACION COPEC UNIVERSIDAD CATÓLICA, priority 2015, dated 2022)

Columns and labels:
[1] = in vitro; settings: rat
From the text: Brains were used from 18-day rat embryos. The extracted hippocampi were placed in modified Hanks saline solution (mHBSS, for its name in English: Hank's buffer salt solution) and washed three times to then add trypsin (0.25%). After this treatment, the hippocampi were washed with mHBSS and transferred to a MEM medium (Minimum Essential Medium) supplemented with 10% horse serum (HS), disintegrating with Pasteur pipette. The cell suspension was collected by low speed centrifugation (2000×g×20 s) at room temperature. The supernatant was saved and the pellet was broken up again with a very fine tip Pasteur pipette. Another centrifugation was performed at low speed (2000×g×20 s) at room temperature. The supernatant containing the cells in suspension was pooled with the above supernatant and the viable cells were counted using Trypan blue (0.2%). Subsequently, the neurons were seeded in culture plates in MEM supplemented with 10% HS. After the hippocampal neurons adhered to the plaque, they were exchanged for medium with a Neurobasal medium with the culture supplement B27, remaining in culture for fourteen days.
Initially, the percentage of cellular viability of said hippocampal neurons exposed to different concentrations of hydrogen peroxide was evaluated. (10, 50, 100, 200, 500 μM) during 1 h. Hydrogen peroxide (H2O2) under biological conditions, it is a highly oxidizing compound.

[2] = Neuroprotection against oxidative damage by H2O2 in hippocampal cultures (neuronal viability); type: cell-based; settings: rat, primary hippocampal neurons from 18-day rat embryos; 50 μM H2O2 for 1 h, vehicle pre-incubation, 24 h after exposure; read-out: cell viability in the control condition (vehicle) after H2O2
Experimental: Brains were used from 18-day rat embryos.
The hippocampal neurons of rat obtained in point 2.1 were used to evaluate the neuroprotective effect of the nanofibers of the invention.
The neuroprotective effect of the antioxidant mixture (AOX) was evaluated, for which the neurons obtained in point 2.1 were incubated for 24 hours in a medium supplemented with the mixture of antioxidants obtained in Example 1.1. Neuronal viability was compared to control (incubated with the vehicle without antioxidants) at concentrations of 0.001, 1, 10, 100, 150 and 200 μM of AOX, before and after the exposure of crops to a concentration of 50 μM of H2O2, during 1 h of incubation.
The neuroprotective effect of the nanofibers of the invention (NF) was evaluated, for which the neurons obtained in point 2.1 were incubated for 24 hours in a medium supplemented with the nanofibers of the invention obtained in Example 1.2. The neuronal viability compared to the control (incubated with the vehicle without nanofibers) was compared with nanofibers containing concentrations of 0.001, 1, 10, 100, 150 and 200 μM of AOX, before and after the exposure of crops to a concentration of 50 μM of H2O2, during 1 hour of incubation.

## OO [H2O2, Hydrogen peroxide]
[1]
  viability at 1 h, 10 μM: 69.5%
  viability at 1 h, 50 μM: 44.3%
  viability at 1 h, 100 μM: 29.1%
  viability at 1 h, 200 μM: 19.6%
  viability at 1 h, 500 μM: 15.8%
[2]
  viability at 1 h, 50 μM: < 50%
